Literature values in patent publication US20230399457A1, “Bioactive Synthetic Copolymer, Bioactive Macromolecule and Related Methods Thereof” (Agency for Science, Technology and Research, priority 2020, published 2023).

Test system: rats

Sequence: AGQWHRVSVRWGC [A5G81, laminin-derived peptide]
- wound healing: facilitate wound healing in rats
